Results: US20180186815A1, “PHARMACEUTICAL COMPOSITIONS, METHODS FOR THEIR PREPARATION AND THEIR USE IN THE TREATMENT OF CANCER” (Urifer Ltd., priority 2016, published 2018)
Read-outs that look alike come from different tables or passages of the source.

Assays:
Assay type in all cases: cell-based
[1] = Viability of FS non malignant fibroblastic cells, XTT test; conditions: FS cells (non-malignant fibroblastic cell line), Control DMSO = 100%, read-out: percentage of viable cells, FS
Protocol: (§1) The effect of the compounds Z522-XXX on the growth profile of cancer cells which express Fer was tested. The cells that were tested were: the colon cancer cell lines HT29 and HCT 116, RKO. The effect of each of the compounds on FS cells, a non malingnant fibroblastic cell line, was also studied.
(§2) Generally, cells were seeded in 96 wells microplates and were left to grow untreated overnight. Each of the compounds was dissolved in DMSO and was then added to each well in a final concentration of 5 μM. The concentration of DMSO in each well was 0.4% v/v. Untreated cells and cells subjected to 0.4% DMSO alone, served as controls. The percentage of viable cells in each well was determined 96 hours after compounds addition, using the XTT test (Berridge, M. V. et al, 2005).

[2] = system: colon cancer cell line RKO; assay: Growth profile / viability of RKO colon cancer cells, XTT test; conditions: 96 h, Control DMSO = 100%, read-out: percentage of viable cells, RKO
Protocol: as §1, §2

[3] = system: colon cancer cell line HCT 116; assay: Growth profile / viability of HCT116 colon cancer cells, XTT test; conditions: Homo sapiens, HCT-116, 96 h, Control DMSO = 100%, read-out: percentage of viable cells, HCT116
Protocol: as §1, §2

[4] = system: colon cancer cell line HT29; assay: Growth profile / viability of HT29 colon cancer cells, XTT test; conditions: Homo sapiens, HT-29, 96 h, Control DMSO = 100%, read-out: percentage of viable cells, HT29
Protocol: as §1, §2

Row | Compound | viability at 96 h, 5 µM ([1]; first FS column) [%] | viability at 96 h, 5 µM ([1]; second FS column) [%] | viability at 5 µM ([2]; first RKO column) [%] | viability at 5 µM ([2]; second RKO column) [%] | viability at 5 µM ([3]; first HCT116 column) [%] | viability at 5 µM ([3]; second HCT116 column) [%] | viability at 5 µM ([4]; first HT29 column) [%] | viability at 5 µM ([4]; second HT29 column) [%]
1 | CC(C)c1ccc(-c2cn3nc(N4CCC(C(=O)N(C)CC(=O)N5CCN(C)CC5)CC4)sc3n2)cc1 [Compound Z522-0240, 1-[6-(4-isopropylphenyl)imidazo[2,1-b][1,3,4]thiadiazol-2-yl]-N^4-methyl-N^4-[2-(4-methyl-piperazino)-2-oxoethyl]-4-piperidinecarboxamide] | 80 | 101 | 19 | 15 | 82 | 68 | 50 | 53
2 | CC(C)c1ccc(-c2cn3nc(N4CCC(C(=O)N5CCN(c6ncccn6)CC5)CC4)sc3n2)cc1 [Compound Z522-0227, 6-(4-isopropyl-phenyl)-2-{4-[(4-pyrimidin-2-ylpiperazin-1-yl)carbonyl]piperidin-1-yl}imidazo[2,1-b][1,3,4]thiadiazole] | 89 | 91 | 63 | 63 | 72 | 84 | 91 | 91
3 | CC1CCN(c2ccc(-c3cn4nc(N5CCC(C(=O)N6CCN(C)CC6)CC5)sc4n3)cc2)CC1 [Compound Z522-0170, 2-{4-[(4-methyl-piperazin-1-yl)carbonyl]piperidin-1-yl}-6-[4-(4-methylpiperidin-1-yl)phenyl]-imidazo[2,1-b]-[1,3,4]thiadiazole] | 90 | 68 | 3 | 4 | 2 | 3 | 5 | 2
4 | CCN1CCN(CC2CCN(C(=O)C3CCN(c4nn5cc(-c6ccc(Cl)cc6)nc5s4)CC3)CC2)CC1 [Compound Z522-0221, 6-(4-chlorophenyl)-2-[4-({4-[(4-ethylpiperazin-1-yl)methyl]piperidin-1-yl}carbonyl)piperidin-1-yl]imidazo[2,1-b][1,3,4]thiadiazole] |  |  |  |  | 1 | 1 |  | 
5 | CN(C)CCNC(=O)CN1CCN(C(=O)C2CCN(c3nn4cc(-c5ccc(Cl)cc5)nc4s3)CC2)CC1 [Compound Z522-0218, 2-[4-({1-[6-(4-chlorophenyl)imidazo[2,1-b][1,3,4]thiadiazol-2-yl]piperidin-4-yl}carbonyl)piperazin-1-yl]-N-[2-(dimethylamino)ethyl] acetamide] | 82 | 84 |  |  | 51 | 19 | 3 | 4
6 | CC(C)c1ccc(-c2cn3nc(N4CCC(C(=O)N(C)C5CCN(C)CC5)CC4)sc3n2)cc1 [Compound Z522-0225, 1-[6-(4-isopropylphenyl)imidazo[2,1-b][1,3,4]thiadiazol-2-yl]-N-methyl-N-(1-methylpiperidin-4-yl)piperidine-4-carboxamide] | 65 | 28 |  |  | 1 | 0 |  | 
7 | O=C(C1CCN(c2nn3cc(-c4ccc(Cl)cc4)nc3s2)CC1)N1CCCCC1CN1CCCC1 (stereo not drawn) [Compound Z522-0212, 6-(4-chlorophenyl)-2-(4-{[2-(pyrrolidin-1-ylmethyl)piperidin-1-yl]carbonyl}piperidin-1-yl)imidazo[2,1-b][1,3,4]thiadiazole] |  | 1 |  |  | 2 |  | 1 | 0
8 | CCN1CCN(CC2CCN(C(=O)C3CCN(c4nn5cc(-c6ccc(C(C)C)cc6)nc5s4)CC3)CC2)CC1 [Compound Z522-0244, 2-[4-({4-[(4-ethylpiperazin-1-yl)methyl]piperidin-1-yl}carbonyl)piperidin-1-yl]-6-(4-isopropylphenyl) imidazo[2,1-b][1,3,4]thiadiazole] |  |  |  | 0 |  | 0 | 1 | 0
9 | CC(C)c1ccc(-c2cn3nc(N4CCC(C(=O)N5CCN(C6CCN(C)CC6)CC5)CC4)sc3n2)cc1 [Compound Z522-0230, 6-(4-isopropylphenyl)-2-(4-{[4-(1-methylpiperidin-4-yl)piperazin-1-yl]carbonyl}piperidin-1-yl)imidazo[2,1-b][1,3,4]thiadiazole] | 22 | 39 |  |  | 2 | 0 |  | 
10 | CC(C)c1ccc(-c2cn3nc(N4CCC(C(=O)N5CCCN(C)CC5)CC4)sc3n2)cc1 [Compound Z522-0224, 6-(4-isopropylphenyl)-2-{4-[(4-methyl-1,4-diazepan-1-yl)carbonyl]piperidin-1-yl}imidazo[2,1-b][1,3,4]thiadiazole] | 60 | 67 |  |  | 0 |  | 0 | 0
11 | CCN(CC)CCN(CC)C(=O)C1CCN(c2nn3cc(-c4ccc(C(C)C)cc4)nc3s2)CC1 [Compound Z522-0222, N-[2-(diethylamino)ethyl]-N-ethyl-1-[6-(4-isopropylphenyl)imidazo[2,1-b][1,3,4]thiadiazol-2-yl]piperidine-4-carboxamide] | 56 | 56 |  |  | 1 |  |  | 
12 | CCN(CC)CCN(CC)C(=O)C1CCN(c2nn3cc(-c4ccc(Cl)cc4)nc3s2)CC1 [Compound Z522-0199, 1-[6-(4-chlorophenyl)imidazo[2,1-b][1,3,4]thiadiazol-2-yl]-N-[2-(diethylamino)ethyl]-N-ethylpiperidine-4-carboxamide] | 19 | 21 |  |  |  |  |  | 1
13 | CN1CCC(N(C)C(=O)C2CCN(c3nn4cc(-c5ccc(Cl)cc5)nc4s3)CC2)CC1 [Compound Z522-0202, 1-[6-(4-chlorophenyl)imidazo[2,1-b][1,3,4]thiadiazol-2-yl]-N-methyl-N-(1-methylpiperidin-4-yl)piperidine-4-carboxamide] | 73 | 69 |  |  | 5 |  | 1 | 0
14 | CC(C)c1ccc(-c2cn3nc(N4CCC(C(=O)N5CCCCC5CCN5CCOCC5)CC4)sc3n2)cc1 (stereo not drawn) [Compound Z522-0234, 6-(4-isopropylphenyl)-2-(4-{[2-(2-morpholin-4-ylethyl)piperidin-1-yl]carbonyl}piperidin-1-yl)imidazo[2,1-b][1,3,4]thiadiazole] | 62 | 105 |  |  | 60 | 54 | 12 | 7
15 | CN1CCC(N2CCN(C(=O)C3CCN(c4nn5cc(-c6ccc(Cl)cc6)nc5s4)CC3)CC2)CC1 [Compound Z522-0207, 6-(4-chlorophenyl)-2-(4-{[4-(1-methylpiperidin-4-yl)piperazin-1-yl]carbonyl}piperidin-1-yl)imidazo[2,1-b][1,3,4]thiadiazole] | 3 | 16 |  |  | 0 | 4 | 3 | 0
16 | CN(C)CCN1CCN(C(=O)C2CCN(c3nn4cc(-c5ccc(Cl)cc5)nc4s3)CC2)CC1 [Compound Z522-0206] | 2 | 6 |  |  | 1 |  |  | 
17 | O=C(C1CCN(c2nn3cc(-c4ccc(Cl)cc4)nc3s2)CC1)N1CCCCC1CCN1CCOCC1 (stereo not drawn) [Compound Z522-0211, 6-(4-chlorophenyl)-2-(4-{[2-(2-morpholin-4-ylethyl)piperidin-1-yl]carbonyl}piperidin-1-yl)imidazo[2,1-b][1,3,4]thiadiazole] | 75 | 81 |  |  | 72 | 61 | 64 | 60
18 | CN(C)CCN(Cc1ccco1)C(=O)C1CCN(c2nn3cc(-c4ccc(Cl)cc4)nc3s2)CC1 [Compound Z522-0220, 1-[6-(4-chlorophenyl)imidazo[2,1-b][1,3,4]thiadiazol-2-yl]-N-[2-(dimethylamino)ethyl]-N-(2-furylmethyl)piperidine-4-carboxamide] | 61 | 49 |  |  | 1 | 3 | 0 | 
19 | CC(C)c1ccc(-c2cn3nc(N4CCC(C(=O)N5CCCCC5CN5CCCC5)CC4)sc3n2)cc1 (stereo not drawn) [Compound Z522-0235, 6-(4-isopropylphenyl)-2-(4-{[2-(pyrrolidin-1-ylmethyl)piperidin-1-yl]carbonyl}piperidin-1-yl)imidazo[2,1-b][1,3,4]thiadiazole] |  | 14 |  |  | 1 | 1 |  | 
